According to patent US8541588B2, “Sulfonamide derivatives” (Pfizer Limited, priority 2009, dated 2013):
pIC50: −log10 of the molar value.

Each molecule was assayed against T1, Nav1.7 (or SCN9A) channel; HEK cells stably transfected with hSCN9A (Homo sapiens, UniProt Q15858) (assay: Nav1.7 block, PatchXpress 7000 automated whole-cell voltage clamp, estimated IC50 (EIC50)). Details: estimated IC50; hSCN9A HEK cells, PatchXpress platform; Examples 283-814.
T1 construct: expressed in transfected cells
Format: cell-based

T1 sequence (Q15858 whole entry): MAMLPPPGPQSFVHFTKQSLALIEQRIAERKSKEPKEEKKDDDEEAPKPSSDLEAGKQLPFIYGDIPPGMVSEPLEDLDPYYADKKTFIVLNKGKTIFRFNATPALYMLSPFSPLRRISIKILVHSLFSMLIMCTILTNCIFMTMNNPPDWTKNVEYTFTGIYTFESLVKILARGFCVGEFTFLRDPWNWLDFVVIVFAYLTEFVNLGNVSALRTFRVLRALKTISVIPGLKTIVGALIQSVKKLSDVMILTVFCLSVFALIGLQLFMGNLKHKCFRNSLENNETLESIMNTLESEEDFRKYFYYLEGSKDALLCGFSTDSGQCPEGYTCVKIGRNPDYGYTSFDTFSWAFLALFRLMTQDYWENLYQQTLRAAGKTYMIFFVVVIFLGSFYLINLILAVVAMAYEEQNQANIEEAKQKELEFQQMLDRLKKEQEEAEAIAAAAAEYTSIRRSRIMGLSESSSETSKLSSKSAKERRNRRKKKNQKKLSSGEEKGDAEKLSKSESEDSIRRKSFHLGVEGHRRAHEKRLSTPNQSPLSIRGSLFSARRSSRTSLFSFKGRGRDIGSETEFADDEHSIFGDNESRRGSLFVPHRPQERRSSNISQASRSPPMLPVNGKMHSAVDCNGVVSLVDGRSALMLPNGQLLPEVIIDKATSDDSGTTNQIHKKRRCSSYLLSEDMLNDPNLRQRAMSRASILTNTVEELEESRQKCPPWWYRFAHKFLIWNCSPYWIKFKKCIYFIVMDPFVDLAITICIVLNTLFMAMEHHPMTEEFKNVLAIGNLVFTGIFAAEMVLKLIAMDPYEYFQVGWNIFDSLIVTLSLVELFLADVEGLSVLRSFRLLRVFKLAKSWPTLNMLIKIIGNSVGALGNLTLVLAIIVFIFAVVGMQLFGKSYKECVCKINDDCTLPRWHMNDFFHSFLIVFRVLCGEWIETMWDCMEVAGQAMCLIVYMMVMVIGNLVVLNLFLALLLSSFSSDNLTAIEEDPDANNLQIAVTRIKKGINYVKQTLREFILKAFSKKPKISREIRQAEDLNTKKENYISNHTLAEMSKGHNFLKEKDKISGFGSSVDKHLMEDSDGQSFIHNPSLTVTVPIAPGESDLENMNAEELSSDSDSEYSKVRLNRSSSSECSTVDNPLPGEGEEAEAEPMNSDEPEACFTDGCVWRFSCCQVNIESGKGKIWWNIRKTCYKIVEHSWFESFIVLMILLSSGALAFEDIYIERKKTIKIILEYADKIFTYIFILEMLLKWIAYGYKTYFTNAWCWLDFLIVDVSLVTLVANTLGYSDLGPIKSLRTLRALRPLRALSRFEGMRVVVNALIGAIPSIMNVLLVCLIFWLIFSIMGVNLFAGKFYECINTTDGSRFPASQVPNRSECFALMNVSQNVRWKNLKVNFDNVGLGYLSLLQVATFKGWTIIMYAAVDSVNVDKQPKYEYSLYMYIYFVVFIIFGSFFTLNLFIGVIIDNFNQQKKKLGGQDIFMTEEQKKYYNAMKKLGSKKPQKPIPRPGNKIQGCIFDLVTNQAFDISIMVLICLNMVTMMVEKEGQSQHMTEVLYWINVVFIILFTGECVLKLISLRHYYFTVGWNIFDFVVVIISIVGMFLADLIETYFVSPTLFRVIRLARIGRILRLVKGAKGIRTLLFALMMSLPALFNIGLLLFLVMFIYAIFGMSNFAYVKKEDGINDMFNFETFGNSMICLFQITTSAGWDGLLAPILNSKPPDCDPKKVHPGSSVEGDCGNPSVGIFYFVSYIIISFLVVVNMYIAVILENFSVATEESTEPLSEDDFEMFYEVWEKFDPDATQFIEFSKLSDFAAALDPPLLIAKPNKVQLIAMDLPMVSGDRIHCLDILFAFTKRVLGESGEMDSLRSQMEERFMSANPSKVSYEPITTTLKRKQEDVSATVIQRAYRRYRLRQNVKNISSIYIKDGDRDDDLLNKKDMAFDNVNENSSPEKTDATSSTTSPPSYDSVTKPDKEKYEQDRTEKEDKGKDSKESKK

Row | Structure (SMILES) | pIC50 | IC50 [nM]
1 | N#Cc1cc(S(=O)(=O)Nc2nccs2)ccc1Oc1ccc(Cl)cc1CN1CCC(F)(F)C1 [Example 360, 4-{4-chloro-2-[(3,3-difluoropyrrolidin-1-yl)methyl]phenoxy}-3-cyano-N-1,3-thiazol-2-ylbenzenesulfonamide] | 6.48 | 
2 | Cn1nccc1-c1cc(Cl)ccc1Oc1ccc(S(=O)(=O)Nc2ccncn2)cc1C#N [Example 361, 4-[4-chloro-2-(1-methyl-1H-pyrazol-5-yl)phenoxy]-3-cyano-N-pyrimidin-4-ylbenzenesulfonamide] | 6.32 | 
3 | Cn1nccc1-c1cc(F)ccc1Oc1cc(F)c(S(=O)(=O)Nc2csnn2)cc1Cl [Example 364, 5-chloro-2-fluoro-4-(4-fluoro-2-(1-methyl-1H-pyrazol-5-yl)phenoxy)-N-(1,2,3-thiadiazol-4-yl)benzenesulfonamide] | 6.32 | 
4 | Cn1nccc1-c1cc(OC(F)(F)F)ccc1Oc1ccc(S(=O)(=O)Nc2nccs2)cc1F [Example 365, 3-fluoro-4-[2-(1-methyl-1H-pyrazol-5-yl)-4-(trifluoromethoxy)phenoxy]-N-1,3-thiazol-2-ylbenzenesulfonamide] | 7.16 | 
5 | N#Cc1cc(S(=O)(=O)Nc2ccc(F)cn2)ccc1Oc1ccccc1-c1ccccc1 [Example 366, 4-(biphenyl-2-yloxy)-3-cyano-N-(5-fluoropyridin-2-yl)benzenesulfonamide] | 5.32 | 
6 | CCn1nc(C(F)(F)F)cc1-c1ccc(Oc2ccc(S(=O)(=O)Nc3ccc(F)cn3)cc2C#N)cc1 [Example 367, 3-cyano-4-{4-[1-ethyl-3-(trifluoromethyl)-1H-pyrazol-5-yl]phenoxy}-N-(5-fluoropyridin-2-yl)benzenesulfonamide] | 5.62 | 
7 | CCn1nc(C(F)(F)F)cc1-c1cccc(Oc2ccc(S(=O)(=O)Nc3ccc(F)cn3)cc2C#N)c1 [Example 368, 3-cyano-4-{3-[1-ethyl-3-(trifluoromethyl)-1H-pyrazol-5-yl]phenoxy}-N-(5-fluoropyridin-2-yl)benzenesulfonamide] |  | >1000
8 | CCn1nc(C2CC2)cc1-c1ccc(Oc2ccc(S(=O)(=O)Nc3nccs3)cc2C#N)cc1 [Example 369, 3-cyano-4-[4-(3-cyclopropyl-1-ethyl-1H-pyrazol-5-yl)phenoxy]-N-1,3-thiazol-2-ylbenzenesulfonamid] | 6.31 | 
9 | N#Cc1cc(S(=O)(=O)Nc2nccs2)ccc1Oc1ccc(-n2ccc(C3CC3)n2)cc1 [Example 370, 3-cyano-4-[4-(3-cyclopropyl-1H-pyrazol-1-yl)phenoxy]-N-1,3-thiazol-2-ylbenzenesulfonamide] | 5.80 | 
10 | Cn1nc(-c2ccc(Oc3ccc(S(=O)(=O)Nc4nccs4)cc3C#N)cc2)cc1C(F)(F)F [Example 371, 3-cyano-4-{4-[1-methyl-5-(trifluoromethyl)-1H-pyrazol-3-yl]phenoxy}-N-1,3-thiazol-2-ylbenzenesulfonamide] | 5.74 | 
11 | CCn1nc(-c2ccc(Oc3ccc(S(=O)(=O)Nc4nccs4)cc3C#N)cc2)cc1C1CC1 [Example 372, 3-cyano-4-[4-(5-cyclopropyl-1-ethyl-1H-pyrazol-3-yl)phenoxy]-N-1,3-thiazol-2-ylbenzenesulfonamide] | 5.59 | 
12 | N#Cc1cc(S(=O)(=O)Nc2nccs2)ccc1Oc1ccc(-c2cc(C3CC3)n[nH]2)c(Cl)c1 [Example 373, 4-[3-chloro-4-(3-cyclopropyl-1H-pyrazol-5-yl)phenoxy]-3-cyano-N-1,3-thiazol-2-ylbenzenesulfonamide] |  | >1000
13 | Cc1cc(-c2ccc(Oc3ccc(S(=O)(=O)Nc4nccs4)cc3C#N)cc2)n(CCO)n1 [Example 374, 3-cyano-4-{4-[1-(2-hydroxyethyl)-3-methyl-1H-pyrazol-5-yl]phenoxy}-N-1,3-thiazol-2-ylbenzenesulfonamide] | 5.72 | 
14 | CN(C)C(=O)c1cnn(-c2ccc(Oc3ccc(S(=O)(=O)Nc4nccs4)cc3C#N)cc2)c1 [Example 375, 1-(4-{2-cyano-4-[(1,3-thiazol-2-ylamino)sulfonyl]phenoxy}phenyl)-N,N-dimethyl-1H-pyrazole-4-carboxamide] |  | >1000
15 | COCc1cnn(-c2ccc(Oc3ccc(S(=O)(=O)Nc4nccs4)cc3C#N)cc2)c1 [Example 376, 3-cyano-4-{4-[4-(methoxymethyl)-1H-pyrazol-1-yl]phenoxy}-N-1,3-thiazol-2-ylbenzenesulfonamide] |  | >1000
16 | CN(C)Cc1cnn(-c2ccc(Oc3ccc(S(=O)(=O)Nc4nccs4)cc3C#N)cc2)c1 [Example 377, 3-cyano-4-(4-{4-[(dimethylamino)methyl]-1H-pyrazol-1-yl}phenoxy)-N-1,3-thiazol-2-ylbenzenesulfonamide] |  | >1000
17 | CC(C)(C)NC(=O)c1cnn(-c2ccc(Oc3ccc(S(=O)(=O)Nc4nccs4)cc3C#N)cc2)c1 [Example 378, N-tert-butyl-1-(4-{2-cyano-4-[(1,3-thiazol-2-ylamino)sulfonyl]phenoxy}phenyl)-1H-pyrazole-4-carboxamide] |  | >1000
18 | N#Cc1cc(S(=O)(=O)Nc2nccs2)ccc1Oc1ccc(-n2cc(C(N)=O)cn2)cc1 [Example 379, 1-(4-{2-cyano-4-[(1,3-thiazol-2-ylamino)sulfonyl]phenoxy}phenyl)-1H-pyrazole-4-carboxamide] |  | >1000

Row | Structure (SMILES) | pIC50 | IC50 [nM]
19 | N#Cc1cc(S(=O)(=O)Nc2nccs2)ccc1Oc1ccc(-n2ccc(C(F)(F)F)n2)c(Cl)c1 [Example 380, 4-{3-chloro-4-[3-(trifluoromethyl)-1H-pyrazol-1-yl]phenoxy}-3-cyano-N-1,3-thiazol-2-ylbenzenesulfonamide] | 6.70 | 
20 | N#Cc1cc(S(=O)(=O)Nc2nccs2)ccc1Oc1ccc(-n2ccc(C(F)(F)F)n2)c(F)c1 [Example 381, 3-cyano-4-{3-fluoro-4-[3-(trifluoromethyl)-1H-pyrazol-1-yl]phenoxy}-N-1,3-thiazol-2-ylbenzenesulfonamide] | 6.33 | 
21 | N#Cc1cc(S(=O)(=O)Nc2nccs2)ccc1Oc1ccc(-c2cc(C(F)(F)F)nn2CCO)cc1 [Example 382, 3-cyano-4-{4-[1-(2-hydroxyethyl)-3-(trifluoromethyl)-1H-pyrazol-5-yl]phenoxy}-N-1,3-thiazol-2-ylbenzenesulfonamide] | 7.30 | 
22 | Cn1nc(C(F)F)cc1-c1ccc(Oc2ccc(S(=O)(=O)Nc3nccs3)cc2C#N)cc1 [Example 383, 3-cyano-4-{4-[3-(difluoromethyl)-1-methyl-1H-pyrazol-5-yl]phenoxy}-N-1,3-thiazol-2-ylbenzenesulfonamide] | 6.51 | 
23 | N#Cc1cc(S(=O)(=O)Nc2nccs2)ccc1Oc1ccc(-n2cc(Cl)cn2)c(Cl)c1 [Example 384, 4-[3-chloro-4-(4-chloro-1H-pyrazol-1-yl)phenoxy]-3-cyano-N-1,3-thiazol-2-ylbenzenesulfonamide] | 6.46 | 
24 | N#Cc1cc(S(=O)(=O)Nc2ncns2)ccc1Oc1ccccc1-c1cn[nH]c1 [Example 385, 4-(2-(1H-pyrazol-4-yl)phenoxy)-3-cyano-N-(1,2,4-thiadiazol-5-yl)benzenesulfonamide] | 7.17 | 
25 | Cn1nccc1-c1cc(F)ccc1Oc1ccc(S(=O)(=O)Nc2ncc(F)s2)cc1C#N [Example 386, 3-cyano-4-[4-fluoro-2-(1-methyl-1H-pyrazol-5-yl)phenoxy]-N-(5-fluoro-1,3-thiazol-2-yl)benzenesulfonamide] | 7.04 | 
26 | Cn1nc(C(F)(F)F)cc1-c1ccc(Oc2ccc(S(=O)(=O)Nc3ncc(F)s3)cc2C#N)cc1 [Example 387, 3-cyano-N-(5-fluoro-1,3-thiazol-2-yl)-4-{4-[1-methyl-3-(trifluoromethyl)-1H-pyrazol-5-yl]phenoxy}benzenesulfonamide] | 6.85 | 
27 | CCn1nc(C)cc1-c1ccc(Oc2ccc(S(=O)(=O)Nc3nccs3)cc2C#N)cc1 [Example 388, 3-cyano-4-[4-(1-ethyl-3-methyl-1H-pyrazol-5-yl)phenoxy]-N-1,3-thiazol-2-ylbenzenesulfonamide] | 6.13 | 
28 | Cc1nn(C)cc1-c1ccc(Oc2ccc(S(=O)(=O)Nc3nccs3)cc2C#N)cc1 [Example 389, 3-cyano-4-[4-(1,3-dimethyl-1H-pyrazol-4-yl)phenoxy]-N-1,3-thiazol-2-ylbenzenesulfonamide] | 5.96 | 
29 | N#Cc1cc(S(=O)(=O)Nc2nccs2)ccc1Oc1cccc(-n2nc(C(F)F)cc2CO)c1 [Example 390, 3-cyano-4-{3-[3-(difluoromethyl)-5-(hydroxymethyl)-1H-pyrazol-1-yl]phenoxy}-N-1,3-thiazol-2-ylbenzenesulfonamide] | 6.52 | 
30 | N#Cc1cc(S(=O)(=O)Nc2nccs2)ccc1Oc1ccc(I)cc1-c1ccn[nH]1 [Example 391, 3-cyano-4-[4-iodo-2-(1H-pyrazol-5-yl)phenoxy]-N-1,3-thiazol-2-ylbenzenesulfonamide] | 8.60 | 
31 | N#Cc1cc(S(=O)(=O)Nc2cscn2)ccc1Oc1ccc(Cl)cc1-c1ccnc(N)c1 [Example 392, 4-[2-(2-aminopyridin-4-yl)-4-chlorophenoxy]-3-cyano-N-1,3-thiazol-4-ylbenzenesulfonamide] | 6.85 | 
32 | N#Cc1cc(S(=O)(=O)Nc2cscn2)ccc1Oc1ccc(Cl)cc1-c1cn[nH]c1N [Example 393, 4-[2-(5-amino-1H-pyrazol-4-yl)-4-chlorophenoxy]-3-cyano-N-1,3-thiazol-4-ylbenzenesulfonamide] | 6.00 | 
33 | N#Cc1cc(S(=O)(=O)Nc2cscn2)ccc1Oc1ccc(Cl)cc1-c1cnn(C(F)F)c1 [Example 394, 4-{4-chloro-2-[1-(difluoromethyl)-1H-pyrazol-4-yl]phenoxy}-3-cyano-N-1,3-thiazol-4-ylbenzenesulfonamide] | 5.54 | 
34 | Cn1nc(C(F)(F)F)cc1-c1cc(Cl)ccc1Oc1ccc(S(=O)(=O)Nc2cscn2)cc1C#N [Example 395, 4-{4-chloro-2-[1-methyl-3-(trifluoromethyl)-1H-pyrazol-5-yl]phenoxy}-3-cyano-N-1,3-thiazol-4-ylbenzenesulfonamide] | 5.74 | 
35 | CC(C)Oc1cc(-c2cc(F)ccc2Oc2ccc(S(=O)(=O)Nc3cscn3)cc2C#N)n(C)n1 [Example 396, 3-cyano-4-[4-fluoro-2-(3-isopropoxy-1-methyl-1H-pyrazol-5-yl)phenoxy]-N-1,3-thiazol-4-ylbenzenesulfonamide] |  | >3000
